In ChEMBL document CHEMBL5390231, “Development of small molecule inhibitors targeting RNA helicase DHX33 as anti-cancer agents” (Bioorg Med Chem Lett, 2023):

What was measured:
[1] = molecular target: T1, Putative pre-mRNA-splicing factor ATP-dependent RNA helicase DHX32 (Homo sapiens, UniProt Q7L7V1); assay: Inhibition of N-terminal thioredoxin-tagged human recombinant DHX32 transformed in Escherichia coli BL21(DE3)pLysS cells
T1 sequence (Q7L7V1 whole entry): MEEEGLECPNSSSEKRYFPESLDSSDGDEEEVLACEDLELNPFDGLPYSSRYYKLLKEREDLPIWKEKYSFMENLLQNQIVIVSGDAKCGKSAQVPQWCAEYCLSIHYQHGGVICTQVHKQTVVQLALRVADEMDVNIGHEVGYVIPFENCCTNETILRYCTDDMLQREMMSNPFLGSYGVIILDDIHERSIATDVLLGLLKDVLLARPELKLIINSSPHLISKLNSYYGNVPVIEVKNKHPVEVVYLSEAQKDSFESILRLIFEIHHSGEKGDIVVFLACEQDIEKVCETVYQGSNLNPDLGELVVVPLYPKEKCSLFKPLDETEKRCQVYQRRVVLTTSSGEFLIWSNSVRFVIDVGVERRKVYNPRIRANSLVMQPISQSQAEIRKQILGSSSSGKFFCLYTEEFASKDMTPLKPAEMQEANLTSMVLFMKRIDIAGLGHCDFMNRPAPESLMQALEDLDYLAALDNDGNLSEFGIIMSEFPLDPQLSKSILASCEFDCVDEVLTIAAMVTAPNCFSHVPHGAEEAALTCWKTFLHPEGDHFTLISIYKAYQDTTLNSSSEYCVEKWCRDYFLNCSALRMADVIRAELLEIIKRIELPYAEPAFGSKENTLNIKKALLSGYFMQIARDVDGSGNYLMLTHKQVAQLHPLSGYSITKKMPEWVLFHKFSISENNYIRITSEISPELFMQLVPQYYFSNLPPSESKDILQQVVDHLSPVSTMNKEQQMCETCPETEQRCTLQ

[2] = molecular target: T2, Probable ATP-dependent RNA helicase DDX6 (Homo sapiens, UniProt P26196); assay: Inhibition of N-terminal thioredoxin-tagged human recombinant DDX6 transformed in Escherichia coli BL21(DE3)pLysS cells
T2 sequence (P26196 whole entry): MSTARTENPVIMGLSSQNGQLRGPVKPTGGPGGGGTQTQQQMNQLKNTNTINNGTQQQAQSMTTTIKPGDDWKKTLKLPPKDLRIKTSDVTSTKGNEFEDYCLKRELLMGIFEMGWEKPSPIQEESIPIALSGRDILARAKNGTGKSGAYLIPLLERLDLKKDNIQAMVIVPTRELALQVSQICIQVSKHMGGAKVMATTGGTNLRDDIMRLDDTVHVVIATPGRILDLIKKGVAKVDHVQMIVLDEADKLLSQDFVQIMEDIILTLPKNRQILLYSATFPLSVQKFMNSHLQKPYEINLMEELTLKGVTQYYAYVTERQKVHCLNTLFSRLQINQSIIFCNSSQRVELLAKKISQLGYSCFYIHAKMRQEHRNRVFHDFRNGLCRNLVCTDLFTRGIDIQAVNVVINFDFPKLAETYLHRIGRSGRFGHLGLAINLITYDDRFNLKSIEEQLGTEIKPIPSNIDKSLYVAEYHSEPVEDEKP

[3] = molecular target: T3, Probable ATP-dependent RNA helicase DHX35 (Homo sapiens, UniProt Q9H5Z1); assay: Inhibition of N-terminal thioredoxin-tagged human recombinant DHX35 transformed in Escherichia coli BL21(DE3)pLysS cells
T3 sequence (Q9H5Z1 whole entry): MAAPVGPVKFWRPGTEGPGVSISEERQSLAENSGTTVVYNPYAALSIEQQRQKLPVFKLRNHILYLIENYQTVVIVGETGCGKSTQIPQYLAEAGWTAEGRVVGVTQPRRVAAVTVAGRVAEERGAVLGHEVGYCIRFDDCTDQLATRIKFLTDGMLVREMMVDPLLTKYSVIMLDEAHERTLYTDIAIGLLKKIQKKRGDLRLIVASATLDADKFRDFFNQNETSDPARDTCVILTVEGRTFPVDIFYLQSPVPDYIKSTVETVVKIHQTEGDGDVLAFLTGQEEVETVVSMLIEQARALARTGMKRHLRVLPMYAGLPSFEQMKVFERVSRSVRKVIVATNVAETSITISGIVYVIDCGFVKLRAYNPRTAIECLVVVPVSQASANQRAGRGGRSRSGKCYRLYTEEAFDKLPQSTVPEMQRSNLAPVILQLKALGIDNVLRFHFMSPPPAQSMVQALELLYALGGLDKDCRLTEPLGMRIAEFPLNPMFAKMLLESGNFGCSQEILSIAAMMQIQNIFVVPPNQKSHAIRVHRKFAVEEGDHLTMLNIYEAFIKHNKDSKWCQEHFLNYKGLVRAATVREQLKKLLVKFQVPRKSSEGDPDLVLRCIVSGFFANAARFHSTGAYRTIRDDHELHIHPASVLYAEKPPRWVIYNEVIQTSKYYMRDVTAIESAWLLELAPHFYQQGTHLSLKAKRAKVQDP

[4] = molecular target: T4, Probable ATP-dependent RNA helicase DHX40 (Homo sapiens, UniProt Q8IX18); assay: Inhibition of N-terminal thioredoxin-tagged human recombinant DHX40 transformed in Escherichia coli BL21(DE3)pLysS cells
T4 sequence (Q8IX18 whole entry): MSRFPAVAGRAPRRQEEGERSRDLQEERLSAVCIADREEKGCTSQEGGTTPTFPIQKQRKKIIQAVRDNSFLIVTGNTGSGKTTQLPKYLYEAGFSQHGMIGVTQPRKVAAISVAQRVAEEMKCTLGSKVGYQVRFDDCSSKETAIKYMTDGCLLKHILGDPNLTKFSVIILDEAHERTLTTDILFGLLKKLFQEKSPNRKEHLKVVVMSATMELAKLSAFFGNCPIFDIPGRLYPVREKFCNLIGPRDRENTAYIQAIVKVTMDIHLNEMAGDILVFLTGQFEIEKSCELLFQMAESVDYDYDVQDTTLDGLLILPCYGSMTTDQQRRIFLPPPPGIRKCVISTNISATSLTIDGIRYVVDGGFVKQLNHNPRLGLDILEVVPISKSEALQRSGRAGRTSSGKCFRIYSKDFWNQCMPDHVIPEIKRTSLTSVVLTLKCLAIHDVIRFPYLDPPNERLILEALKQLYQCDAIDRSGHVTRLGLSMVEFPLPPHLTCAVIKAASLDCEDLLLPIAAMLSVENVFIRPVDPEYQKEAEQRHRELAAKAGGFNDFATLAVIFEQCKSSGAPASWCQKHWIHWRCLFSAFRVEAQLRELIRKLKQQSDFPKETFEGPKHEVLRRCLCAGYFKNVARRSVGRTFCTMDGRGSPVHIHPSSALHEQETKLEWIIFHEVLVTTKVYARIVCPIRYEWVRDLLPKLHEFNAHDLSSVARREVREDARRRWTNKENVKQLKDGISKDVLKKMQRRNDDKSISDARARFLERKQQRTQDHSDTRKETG

**Q.** How did the IC50 [1] turn out when `COc1ccc2nc(NC(=O)c3cc(C)n(-c4sc(C)cc4C#N)c3C)[nH]c2c1` was run?
**A.** The IC50 was over 100 µM.

**Q.** And the IC50 [2]?
**A.** Its IC50 is over 100 µM.

**Q.** What about the IC50 [3] of the same molecule?
**A.** The IC50 was 117 µM.

**Q.** What about the IC50 [4] of the same molecule?
**A.** Its IC50 is over 100 µM.
